Columns and labels:
CaV2.2 = molecular target: T1, CaV2.2 (Homo sapiens, UniProt Q00975); assay: VIPR optical membrane potential assay with electrical stimulation, CaV2.2; assay type: cell-based; conditions: Table 9, CaV 2.2 receptors
T1 construct: expressed in transfected cells; host or cells: HEK293
Experimental: A. Optical Methods for Assaying CaV Inhibition Properties of Compounds:
(§1) Antagonist properties of test compounds were assessed as follows. Cells expressing the CaV of interest were placed into microtiter plates. After an incubation period, the cells were stained with fluorescent dyes sensitive to the transmembrane potential. The test compounds were added to the microtiter plate. The cells were stimulated with electrical means to evoke a CaV dependent membrane potential change from unblocked channels, which was detected and measured with trans-membrane potential-sensitive dyes. Antagonists were detected as a decreased membrane potential response to the stimulus.
(§2) VIPR® Optical Membrane Potential Assay Method with Electrical Stimulation
The following is an example of how CaV2.2 inhibition activity is measured using the optical membrane potential method. Other subtypes are performed in an analogous mode in a cell line expressing the CaV of interest.
HEK293 cells stably expressing CaV2.2 are plated into 96-well microtiter plates. After an appropriate incubation period, the cells are stained with the voltage sensitive dyes CC2-DMPE/DiSBAC2(3) as follows.
(§3) 2X CC2-DMPE=20 μM CC2-DMPE: 10 mM CC2-DMPE is vortexed with an equivalent volume of 10% Pluronic, followed by vortexing in required amount of HBSS containing 10 mM HEPES. Each cell plate will require 5 mL of 2×CC2-DMPE. 50 μL of 2×CC2-DMPE is added to wells containing washed cells, resulting in a 10 μM final staining concentration. The cells are stained for 30 minutes in the dark at RT.
Vortex in required amount of Bath X with beta-cyclodextrin. Each 96 well cell plate will require 5 ml of 2XCC2DMPE. Wash plate with ELx405 with Bath X, leaving a residual volume of 50 μL/well. Add 50 μL of 2XCC2DMPE & […] to each well. Stain for 30 minutes in the dark at RT.
Allow solution to sit for 10 minutes. Slowly mix in 370 mM BaCl2. This solution can be used to solvate compound plates. Note that compound plates are made at 1.5× drug concentration and not the usual 2X. Wash CC2 stained plate, again, leaving residual volume of 50 μL. Add 100 uL/well of the AY17 solution. Stain for 15 minutes in the dark at RT. Run plate on the optical reader.
(§4) The instrument comprises a microtiter plate handler, an optical system for exciting the coumarin dye while simultaneously recording the coumarin and oxonol emissions, a waveform generator, a current- or voltage-controlled amplifier, and a device for inserting electrodes in well. Under integrated computer control, this instrument passes user-programmed electrical stimulus protocols to cells within the wells of the microtiter plate.
Insert or use electrodes into each well to be assayed.
(§5) Use the current-controlled amplifier to deliver stimulation wave pulses for 3-5 s. Two seconds of pre-stimulus recording are performed to obtain the un-stimulated intensities. Five seconds of post-stimulation recording are performed to examine the relaxation to the resting state.
(§6) Data are analyzed and reported as normalized ratios of background-subtracted emission intensities measured in the 460 nm and 580 nm channels. Background intensities are then subtracted from each assay channel. Background intensities are obtained by measuring the emission intensities during the same time periods from identically treated assay wells in which there are no cells. The response as a function of time is then reported as the ratios obtained using the following formula: […]
(§7) The data is further reduced by calculating the initial (Ri) and final (Rf) ratios. These are the average ratio values during part or all of the pre-stimulation period, and during sample points during the stimulation period. The response to the stimulus R=Rf/Ri is then calculated.
Control responses are obtained by performing assays in the presence of a compound with the desired properties (positive control), such as mibefradil, and in the absence of pharmacological agents (negative control).

NaV1.3 = molecular target: T2, NaV1.3 (Homo sapiens, UniProt Q9NY46); assay: VIPR optical membrane potential assay with electrical stimulation, NaV1.3; assay type: cell-based; conditions: Table 9, NaV 1.3 receptors
T2 construct: expressed in transfected cells; host or cells: HEK293
Experimental: as §1, with “expressing the NaV of interest” for “expressing the CaV of interest”, “stimulated with either chemical or electrical means” for “stimulated with electrical means”, “evoke a NaV dependent membrane” for “evoke a CaV dependent membrane”
as §2
The following is an example of how NaV1.3 inhibition activity is measured using the optical membrane potential method#2. Other subtypes are performed in an analogous mode in a cell line expressing the NaV of interest.
HEK293 cells stably expressing NaV1.3 are plated into 96-well microtiter plates. After an appropriate incubation period, the cells are stained with the voltage sensitive dyes CC2-DMPE/DiSBAC2(3) as follows.
as §3, with “pluronic,” for “Pluronic,”
2X DISBAC2(3) with ABSC1=6 μM DISBAC2(3) and 1 mM ABSC1: The required amount of 10 mM DISBAC2(3) is added to a 50 ml conical tube and mixed with 1 μL 10% pluronic for each mL of solution to be made and vortexed together. Then HBSS/HEPES is added to make up 2× solution. Finally, the ABSC1 is added.
The 2X DiSBAC2(3) solution can be used to solvate compound plates. Note that compound plates are made at 2× drug concentration. Wash stained plate again, leaving residual volume of 50 Add 50 μL/well of the 2X DiSBAC2(3) w/ABSC1. Stain for 30 minutes in the dark at RT.
as §4
as §5, with “• 1. Insert or use electrodes into each well to be assayed. • 2. Use” for “Use”, “3” for “3-5”, “state. Data Analysis” for “state.”
as §6, §7
Control responses are obtained by performing assays in the presence of a compound with the desired properties (positive control), such as tetracaine, and in the absence of pharmacological agents (negative control). Responses to the negative (N) and positive (P) controls are calculated as above. The compound antagonist activity A is defined as: […]

T2 sequence (Q9NY46 whole entry): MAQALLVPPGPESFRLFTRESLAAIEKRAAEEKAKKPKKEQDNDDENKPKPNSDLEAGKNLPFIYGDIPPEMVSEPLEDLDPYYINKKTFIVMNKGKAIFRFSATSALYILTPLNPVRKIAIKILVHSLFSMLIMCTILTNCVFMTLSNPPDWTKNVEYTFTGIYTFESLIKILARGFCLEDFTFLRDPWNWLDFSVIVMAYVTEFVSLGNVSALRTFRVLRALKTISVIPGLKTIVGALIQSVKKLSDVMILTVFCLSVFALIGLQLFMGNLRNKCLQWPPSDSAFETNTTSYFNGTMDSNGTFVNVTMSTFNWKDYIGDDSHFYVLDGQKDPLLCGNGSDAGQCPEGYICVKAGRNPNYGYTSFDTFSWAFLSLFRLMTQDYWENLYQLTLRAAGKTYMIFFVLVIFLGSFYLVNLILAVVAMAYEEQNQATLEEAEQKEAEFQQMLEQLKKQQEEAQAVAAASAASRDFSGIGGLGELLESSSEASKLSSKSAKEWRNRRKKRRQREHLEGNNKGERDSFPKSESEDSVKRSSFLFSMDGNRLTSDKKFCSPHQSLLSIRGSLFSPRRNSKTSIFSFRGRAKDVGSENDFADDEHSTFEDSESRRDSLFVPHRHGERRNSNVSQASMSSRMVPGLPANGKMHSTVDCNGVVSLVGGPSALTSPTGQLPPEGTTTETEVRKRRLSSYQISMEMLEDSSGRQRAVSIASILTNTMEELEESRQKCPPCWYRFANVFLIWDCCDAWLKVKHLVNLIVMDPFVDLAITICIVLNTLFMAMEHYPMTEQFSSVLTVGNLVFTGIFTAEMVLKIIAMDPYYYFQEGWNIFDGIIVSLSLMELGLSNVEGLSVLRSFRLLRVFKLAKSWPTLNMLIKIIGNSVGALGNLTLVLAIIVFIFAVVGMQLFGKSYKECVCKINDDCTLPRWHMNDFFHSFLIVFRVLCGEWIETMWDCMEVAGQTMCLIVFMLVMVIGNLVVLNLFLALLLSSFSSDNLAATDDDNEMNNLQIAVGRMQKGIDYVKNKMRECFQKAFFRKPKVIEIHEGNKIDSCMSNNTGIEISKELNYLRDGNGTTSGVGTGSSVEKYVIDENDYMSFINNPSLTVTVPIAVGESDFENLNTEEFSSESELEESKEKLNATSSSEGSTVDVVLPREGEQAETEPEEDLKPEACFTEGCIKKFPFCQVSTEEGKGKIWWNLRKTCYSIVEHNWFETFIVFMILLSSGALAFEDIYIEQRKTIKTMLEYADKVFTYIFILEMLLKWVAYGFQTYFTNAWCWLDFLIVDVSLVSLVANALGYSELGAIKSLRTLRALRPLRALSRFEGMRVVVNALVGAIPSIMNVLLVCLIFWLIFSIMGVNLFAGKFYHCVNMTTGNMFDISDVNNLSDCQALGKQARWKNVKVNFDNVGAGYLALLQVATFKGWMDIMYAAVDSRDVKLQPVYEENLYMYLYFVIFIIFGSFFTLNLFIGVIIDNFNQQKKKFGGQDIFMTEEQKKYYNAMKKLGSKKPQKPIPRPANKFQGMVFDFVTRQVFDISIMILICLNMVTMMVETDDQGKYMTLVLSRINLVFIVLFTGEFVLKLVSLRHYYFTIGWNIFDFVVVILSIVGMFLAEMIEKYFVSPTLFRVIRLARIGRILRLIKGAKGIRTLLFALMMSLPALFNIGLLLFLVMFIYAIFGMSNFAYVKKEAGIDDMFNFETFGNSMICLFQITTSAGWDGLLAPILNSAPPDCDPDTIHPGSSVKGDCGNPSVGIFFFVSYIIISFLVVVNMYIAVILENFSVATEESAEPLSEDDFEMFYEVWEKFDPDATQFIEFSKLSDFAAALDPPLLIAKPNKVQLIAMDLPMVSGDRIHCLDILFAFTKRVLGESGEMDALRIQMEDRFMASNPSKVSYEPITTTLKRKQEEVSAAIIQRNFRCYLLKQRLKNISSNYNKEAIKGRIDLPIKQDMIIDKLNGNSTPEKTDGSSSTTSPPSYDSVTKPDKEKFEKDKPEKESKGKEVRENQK

In the case of `CC1CC(C)CN(C(=O)c2cnc(NCc3cccc(Cl)c3)nc2-c2ccc(C#N)cc2)C1` (stereo not drawn) [compound 238], the IC50 (CaV2.2) is reported as > 10 µM and the IC50 (NaV1.3) is reported as > 10 µM.
With `CCN(Cc1ccccc1)C(=O)c1cnc(NCc2ccc3c(c2)OCO3)nc1-c1ccc(C#N)cc1` [compound 269] the IC50 (CaV2.2) was > 10 µM and the IC50 (NaV1.3) was > 10 µM.
In the case of `O=C(c1cnc(NCc2ccccc2C(F)(F)F)nc1-c1ccccc1F)N1CCOCC1` [compound 252], the IC50 (CaV2.2) is reported as > 10 µM and the IC50 (NaV1.3) is reported as > 10 µM.
For `CCN(Cc1ccccc1)C(=O)c1cnc(NCCCOC)nc1-c1ccccc1F` [compound 327], the IC50 (CaV2.2) was > 10 µM and the IC50 (NaV1.3) was > 10 µM.
For `CCCCNC(=O)c1cnc(NC2CCCC2)nc1-c1cccc(C)c1` [compound 218], the IC50 (CaV2.2) was > 10 µM and the IC50 (NaV1.3) was > 10 µM.
`CN(C(=O)c1cnc(NCC2CC2)nc1-c1ccc(C#N)cc1)C1CCCCC1` [compound 298] was tested, and the IC50 (CaV2.2) was > 10 µM and the IC50 (NaV1.3) was > 10 µM.
In the case of `CCC(C)NC(=O)c1cnc(N(C)CC(C)C)nc1-c1ccc(C#N)cc1` (stereo not drawn) [compound 230], the IC50 (CaV2.2) is reported as > 10 µM and the IC50 (NaV1.3) is reported as > 10 µM.
`CCN(Cc1ccccc1)C(=O)c1cnc(NCc2ccc3c(c2)OCO3)nc1-c1ccccc1F` [compound 222] was tested, and the IC50 (CaV2.2) was > 10 µM and the IC50 (NaV1.3) was > 10 µM.
For `CC(=O)NCCNc1ncc(C(=O)N(Cc2ccccc2)C(C)C)c(-c2ccccc2F)n1` [compound 291], the IC50 (CaV2.2) was > 10 µM and the IC50 (NaV1.3) was > 10 µM.
In the case of `CCN(Cc1cccc(C)c1)C(=O)c1cnc(N2CCOCC2)nc1-c1cccc(C)c1` [compound 266], the IC50 (CaV2.2) is reported as > 10 µM and the IC50 (NaV1.3) is reported as > 10 µM.
In the case of `N#Cc1ccc(-c2nc(NC3CCCCC3)ncc2C(=O)N2CCCC2)cc1` [compound 210], the IC50 (CaV2.2) is reported as > 10 µM and the IC50 (NaV1.3) is reported as > 10 µM.
`CCN(C)C(=O)c1cnc(N2CCCC(C(N)=O)C2)nc1-c1ccc(C#N)cc1` (stereo not drawn) [compound 284] was tested, and the IC50 (CaV2.2) was > 10 µM and the IC50 (NaV1.3) was > 10 µM.
In the case of `CCN(Cc1ccccc1)C(=O)c1cnc(N2CCOCC2)nc1-c1cccc(C)c1` [compound 243], the IC50 (CaV2.2) is reported as > 10 µM and the IC50 (NaV1.3) is reported as > 10 µM.
`O=C(c1cnc(NCc2cccc(C(F)(F)F)c2)nc1-c1ccccc1F)N1CCOCC1` [compound 236] was tested, and the IC50 (CaV2.2) was > 10 µM and the IC50 (NaV1.3) was > 10 µM.
For `CCC(C)NC(=O)c1cnc(NC2CCCCC2)nc1-c1ccc(C#N)cc1` (stereo not drawn) [compound 309], the IC50 (CaV2.2) was > 10 µM and the IC50 (NaV1.3) was > 10 µM.
In the case of `CCN(Cc1cccc(C)c1)C(=O)c1cnc(NCCCOC)nc1-c1ccc(C#N)cc1` [compound 265], the IC50 (CaV2.2) is reported as > 10 µM and the IC50 (NaV1.3) is reported as > 10 µM.
For `COCCNc1ncc(C(=O)NCC2CCCCC2)c(-c2ccc(-c3ccccc3)cc2)n1` [compound 297], the IC50 (CaV2.2) was > 10 µM and the IC50 (NaV1.3) was > 10 µM.
For `CCC(C)NC(=O)c1cnc(NC2CC3CC(C2C)C3(C)C)nc1-c1ccc(C#N)cc1` (stereo not drawn) [compound 228], the IC50 (CaV2.2) was > 10 µM and the IC50 (NaV1.3) was > 10 µM.
`COCCCNc1ncc(C(=O)N(Cc2ccccc2)C(C)C)c(-c2ccccc2F)n1` [compound 296] was tested, and the IC50 (CaV2.2) was > 10 µM and the IC50 (NaV1.3) was > 10 µM.
`CCC1CCC(C)N(C(=O)c2cnc(N(C)CC)nc2-c2ccccc2F)C1` (stereo not drawn) [compound 282] was tested, and the IC50 (CaV2.2) was 2 to 10 µM and the IC50 (NaV1.3) was > 10 µM.
In the case of `CC1C(NC(=O)c2cnc(N3CCOCC3)nc2-c2ccc(C#N)cc2)CC2CC1C2(C)C` (stereo not drawn) [compound 217], the IC50 (CaV2.2) is reported as > 10 µM and the IC50 (NaV1.3) is reported as > 10 µM.
With `CC(=O)N1CCN(c2ncc(C(=O)N(Cc3ccccc3)C(C)C)c(-c3ccccc3F)n2)CC1` [compound 216] the IC50 (CaV2.2) was > 10 µM and the IC50 (NaV1.3) was > 10 µM.
For `COc1cccc(OC)c1CNc1ncc(C(=O)N(C)C2CCCCC2)c(-c2ccc(C#N)cc2)n1` [compound 280], the IC50 (CaV2.2) was > 10 µM and the IC50 (NaV1.3) was > 10 µM.
`CCCCNc1ncc(C(=O)N2CCC(C)CC2)c(-c2ccc(C#N)cc2)n1` [compound 344] was tested, and the IC50 (CaV2.2) was > 10 µM and the IC50 (NaV1.3) was > 10 µM.
In the case of `CCC1CCC(C)N(C(=O)c2cnc(NCCCOC)nc2-c2ccc(C#N)cc2)C1` (stereo not drawn) [compound 294], the IC50 (CaV2.2) is reported as > 10 µM and the IC50 (NaV1.3) is reported as > 10 µM.
With `CC(C)CN(C)C(=O)c1cnc(N2CCCC2)nc1-c1ccccc1F` [compound 270] the IC50 (CaV2.2) was > 10 µM and the IC50 (NaV1.3) was > 10 µM.
With `COc1ccccc1CCNC(=O)c1cnc(N2CCOCC2)nc1-c1ccccc1F` [compound 302] the IC50 (CaV2.2) was > 10 µM and the IC50 (NaV1.3) was > 10 µM.
With `CCN(Cc1cccc(C)c1)C(=O)c1cnc(NCC2CC2)nc1-c1ccccc1F` [compound 209] the IC50 (CaV2.2) was > 10 µM and the IC50 (NaV1.3) was > 10 µM.
With `O=C(c1cnc(NCc2ccc3c(c2)OCO3)nc1-c1ccc(-c2ccccc2)cc1)N1CCCCC1` [compound 342] the IC50 (CaV2.2) was > 10 µM and the IC50 (NaV1.3) was > 10 µM.
`CC1CCCCC1NC(=O)c1cnc(N2CCCC(C(N)=O)C2)nc1-c1ccc(C#N)cc1` (stereo not drawn) [compound 286] was tested, and the IC50 (CaV2.2) was > 10 µM and the IC50 (NaV1.3) was > 10 µM.
In the case of `CC(C)N(Cc1ccccc1)C(=O)c1cnc(N2CCOCC2)nc1-c1ccccc1F` [compound 326, 4-(2-Fluoro-phenyl)-2-morpholin-4-yl-pyrimidine-5-carboxylic acid benzyl-isopropyl-amide], the IC50 (CaV2.2) is reported as 2 to 10 µM and the IC50 (NaV1.3) is reported as > 10 µM.
In the case of `CCC(C)NC(=O)c1cnc(NCCc2ccc(Cl)cc2)nc1-c1ccccc1F` (stereo not drawn) [compound 305], the IC50 (CaV2.2) is reported as > 10 µM and the IC50 (NaV1.3) is reported as > 10 µM.
With `COCCCNC(=O)c1cnc(NC2CCCCC2)nc1-c1ccc(-c2ccccc2)cc1` [compound 310] the IC50 (CaV2.2) was > 10 µM and the IC50 (NaV1.3) was > 10 µM.
With `N#Cc1ccc(-c2nc(NCC3CCCCC3)ncc2C(=O)N2CCCCC2)cc1` [compound 245] the IC50 (CaV2.2) was > 10 µM and the IC50 (NaV1.3) was > 10 µM.
For `O=C(NCc1ccccc1)c1cnc(NCCc2cccc(F)c2)nc1-c1ccccc1F` [compound 224], the IC50 (CaV2.2) was > 10 µM and the IC50 (NaV1.3) was > 10 µM.
For `O=C(NCc1ccccc1C(F)(F)F)c1cnc(N2CCOCC2)nc1-c1ccccc1F` [compound 242], the IC50 (CaV2.2) was > 10 µM and the IC50 (NaV1.3) was > 10 µM.
`CCN(C)c1ncc(C(=O)N(C)C2CCCCC2)c(-c2ccc(C#N)cc2)n1` [compound 227] was tested, and the IC50 (CaV2.2) was > 10 µM and the IC50 (NaV1.3) was > 10 µM.
With `CCN(Cc1ccccc1)C(=O)c1cnc(NCc2ccc(C)o2)nc1-c1ccc(C#N)cc1` [compound 244] the IC50 (CaV2.2) was > 10 µM and the IC50 (NaV1.3) was > 10 µM.
With `CCN(Cc1ccccc1)C(=O)c1cnc(N2CCCC(C(N)=O)C2)nc1-c1ccccc1F` (stereo not drawn) [compound 289] the IC50 (CaV2.2) was > 10 µM and the IC50 (NaV1.3) was > 10 µM.

Source: patent US8546414B2, “Ion channel modulators and methods of use” (Vertex Pharmaceuticals Incorporated, priority 2004, dated 2013)
